According to patent US11319298B2 (Merck Sharp & Dohme Corp., priority 2016, dated 2022):

Biological target: T1, human M4 muscarinic acetylcholine receptor (Homo sapiens, UniProt P08173)
T1 construct: expressed in transfected cells; host or cells: CHO-K1
T1 sequence (P08173 1-479): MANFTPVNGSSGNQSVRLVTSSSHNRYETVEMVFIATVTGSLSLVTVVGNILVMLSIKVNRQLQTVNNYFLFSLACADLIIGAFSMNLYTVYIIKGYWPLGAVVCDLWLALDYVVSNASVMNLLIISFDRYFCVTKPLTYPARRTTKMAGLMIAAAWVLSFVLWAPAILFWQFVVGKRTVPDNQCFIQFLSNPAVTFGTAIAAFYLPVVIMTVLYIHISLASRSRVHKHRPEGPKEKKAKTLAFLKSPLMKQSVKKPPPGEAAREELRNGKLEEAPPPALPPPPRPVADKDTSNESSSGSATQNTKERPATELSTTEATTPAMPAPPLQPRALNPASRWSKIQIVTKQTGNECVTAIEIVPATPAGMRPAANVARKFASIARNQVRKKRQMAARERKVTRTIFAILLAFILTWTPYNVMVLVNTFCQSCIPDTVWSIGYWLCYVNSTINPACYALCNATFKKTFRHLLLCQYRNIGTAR
Assay: human FLIPR-based M4 PAM assay, CHO-K1 cells stably transfected with human M4 receptor and chimeric G-protein Gαqi5
Type: cell-based
Details: inflection point (IP) of dose response curve; acetylcholine added at 20% of maximum response; CHO-K1 human M4/Gαqi5, FLIPR Tetra
Method: In a typical experiment the M4 muscarinic acetylcholine receptor modulating activity of the compounds of the present invention was determined in accordance with the following experimental method. CHO-K1 cells stably transfected with human M4 receptor and chimeric G-protein Gαqi5 (Coward P, et al., Analytical Biochemistry, 270:242-248 (1999)) are thawed from liquid N2 storage, resuspended in growth medium, plated in black, clear bottom 384 well plates, and incubated 16-20 hours at 37° C., 5% CO2. On the day of assay, growth medium is removed, the cells are washed 2 times with wash buffer, and cells are incubated in dye loading buffer at 37° C., 5% CO2 for ˜1 hour. Following dye loading the cell plates are placed in a FLIPR Tetra instrument and while monitoring dye fluorescence (excitation […]), 10 uL of test substance at increasing concentrations is added, and fluorescence values are recorded for 4 min. Next, 10 uL of acetylcholine is added (final concentration calculated so as to achieve 20% of the maximum acetycholine response), and the fluorescence reading is continued for 3.5 min. In some cases, a third addition of acetylcholine (final concentration calculated to achieve 70% of the maximal acetylcholine response) is performed. The resulting dose response curves are fit to a 4 parameter logistic equation and the final result is determined as the inflection point (IP) of the curve
CHO-K1 cells stably transfected with human M4 receptor and chimeric G-protein Gαqi5 are thawed from liquid N2 storage, resuspended in growth medium, plated in black, clear bottom 384 well plates, and incubated 16-20 hours at 37° C., 5% CO2.
On the day of assay, growth medium is removed, the cells are washed 2 times with wash buffer, and cells are incubated in dye loading buffer at 37° C., 5% CO2 for ˜1 h. Following dye loading the cell plates are placed in a FLIPR Tetra instrument and while monitoring dye fluorescence ([…]), 10 uL of test substance at increasing concentrations is added, and fluorescence values are recorded for 4 min. Next, 10 uL of acetylcholine is added (final concentration calculated so as to achieve 20% of the maximum acetycholine response), and the fluorescence reading is continued for 3.5 min. In some cases, a third addition of acetylcholine (final concentration calculated to achieve 70% of the maximal acetylcholine response) is performed.

SMILES	EC50
Cc1c(Cl)nc(CO)nc1N1CCC(Oc2ccc3c(c2)CCCC3=O)CC1 [Example 36, 6-((1-(6-chloro-2-(hydroxymethyl)-5-methylpyrimidin-4-yl)piperidin-4-yl)oxy)-3,4-dihydronaphthalen-1(2H)-one]	0.222 µM
Cc1c(Cl)nc(CO)nc1N1CCC(Oc2ccc3ncn(C)c(=O)c3c2)CC1 [Example 6, 6-((1-(6-chloro-2-(hydroxymethyl)-5-methylpyrimidin-4-yl)piperidin-4-yl)oxy)-3-methylquinazolin-4(3H)-one]	0.976 µM
Cc1ncc(C)c(N2CCC(Oc3ccc(OCC(C)(C)N)nc3)CC2)n1 [Example 72, 1-((5-((1-(2,5-dimethylpyrimidin-4-yl)piperidin-4-yl)oxy)pyridin-2-yl)oxy)-2-methylpropan-2-amine]	0.14 µM
COc1ccc(OC2CCN(c3nc(C(=O)NCCc4ccncc4)nc(Cl)c3C)CC2)cn1 [Example 208, 4-chloro-6-(4-((6-methoxypyridin-3-yl)oxy)piperidin-1-yl)-5-methyl-N-(2-(pyridin-4-yl)ethyl)pyrimidine-2-carboxamide]	0.491 µM
Cc1c(Cl)nc(CO)nc1N1CCC(Oc2ccc3c(c2)NCCC3)CC1 [Example 35, (4-chloro-5-methyl-6-(4-((1,2,3,4-tetrahydroquinolin-7-yl)oxy)piperidin-1-yl)pyrimidin-2-yl)methanol]	0.22 µM
COc1ccc(OC2CCN(c3nc(C(=O)NC45CC(C4)C5)nc(Cl)c3C)CC2)cn1 [Example 210, N-(bicyclo[1.1.1]pentan-1-yl)-4-chloro-6-(4-((6-methoxypyridin-3-yl)oxy)piperidin-1-yl)-5-methylpyrimidine-2-carboxamide]	0.592 µM
C=Cc1ncnc(N2CCC(Oc3cccc(C#N)c3)CC2)c1C [Example 245, 3-((1-(5-methyl-6-vinylpyrimidin-4-yl)piperidin-4-yl)oxy)benzonitrile]	0.484 µM
Cc1c(Cl)nc(CO)nc1N1CCC(Oc2ccc3nonc3c2)CC1 [Example 5, (4-(4-(benzo[c][1,2,5]oxadiazol-5-yloxy)piperidin-1-yl)-6-chloro-5-methylpyrimidin-2-yl)methanol]	0.766 µM
COc1ccc(OC2CCN(c3nc(C(=O)NC4CCc5ccccc5C4)nc(Cl)c3C)CC2)cn1 (centres unmarked) [Example 221, 4-chloro-6-(4-((6-methoxypyridin-3-yl)oxy)piperidin-1-yl)-5-methyl-N-(1,2,3,4-tetrahydronaphthalen-2-yl)pyrimidine-2-carboxamide]	1.83 µM
COc1ccc(OC2CCN(c3nc(S(C)(=O)=O)nc(Cl)c3C)CC2)cn1 [Example 226, 4-Chloro-6-(4-((6-methoxypyridin-3-yl)oxy)piperidin-1-yl)-5-methyl-2-(methylsulfonyl)pyrimidine]	0.231 µM
COC(=O)c1cc(C)c(N2CCC(Oc3ccc(OC)nc3)CC2)nc1F [Example 102, Methyl 2-fluoro-6-(4-((6-methoxypyridin-3-yl)oxy)piperidin-1-yl)-5-methylnicotinate]	0.378 µM
Cc1c(Cl)nc(CO)nc1N1CCC(Oc2ccc3c(c2)CCCN3)CC1 [Example 93, (4-chloro-5-methyl-6-(4-((1,2,3,4-tetrahydroquinolin-6-yl)oxy)piperidin-1-yl)pyrimidin-2-yl)methanol]	0.033 µM
Cc1c(Cl)nc(CO)nc1N1CCC(Oc2ccc3c(c2)C(=O)NC3)CC1 [Example 98, 6-((1-(6-chloro-2-(hydroxymethyl)-5-methylpyrimidin-4-yl)piperidin-4-yl)oxy)isoindolin-1-one]	0.184 µM
COC(=O)c1cc(C(=O)OC)c(N2CCC(Oc3ccc(OC)nc3)CC2)nc1C#N [Example 46, dimethyl 2-cyano-6-(4-((6-methoxypyridin-3-yl)oxy)piperidin-1-yl)pyridine-3,5-dicarboxylate]	0.939 µM
COc1ccc(OC2CCN(c3nc(SC)ncc3C#N)CC2)cn1 [Example 85, 4-(4-((6-methoxypyridin-3-yl)oxy)piperidin-1-yl)-2-(methylthio)pyrimidine-5-carbonitrile]	1.15 µM
Cc1c(Cl)nc(CO)nc1N1CCC(Oc2ccc3c(c2)NC(=O)CC3)CC1 [Example 30, 7-((1-(6-chloro-2-(hydroxymethyl)-5-methylpyrimidin-4-yl)piperidin-4-yl)oxy)-3,4-dihydroquinolin-2(1H)-one]	0.14 µM

The next lines start with the values.

EC50	SMILES
4.85 µM	COc1ccc(OC2CCN(c3nc(C(=O)N[C@H]4CCCc5ccccc54)nc(Cl)c3C)CC2)cn1 [Example 224, (S)-4-chloro-6-(4-((6-methoxypyridin-3-yl)oxy)piperidin-1-yl)-5-methyl-N-(1,2,3,4-tetrahydronaphthalen-1-yl)pyrimidine-2-carboxamide]
0.126 µM	COc1ccc(OC2CCN(c3nc(CO)nc(Cl)c3C)CC2)cn1 [Example 68, (4-chloro-6-(4-((6-methoxypyridin-3-yl)oxy)piperidin-1-yl)-5-methylpyrimidin-2-yl)methanol]
0.493 µM	COC(=O)c1cc(C)c(N2CCC(Oc3ccc(OC)nc3)CC2)nc1C#N [Example 45, methyl 2-cyano-6-(4-((6-methoxypyridin-3-yl)oxy)piperidin-1-yl)-5-methylnicotinate]
0.241 µM	Cc1cc(C(=O)NCc2ccncc2Cl)nnc1N1CCC(Oc2cccc(C#N)c2)CC1 [Example 151, N-[(3-chloropyridin-4-yl)methyl]-6-[4-(3-cyanophenoxy)piperidin-1-yl]-5-methylpyridazine-3-carboxamide]
0.399 µM	COc1ccc(OC2CCN(c3nnc(-c4noc(C)n4)cc3C)CC2)cn1 [Example 264, 3-(6-(4-((6-Methoxypyridin-3-yl)oxy)piperidin-1-yl)-5-methylpyridazin-3-yl)-5-methyl-1,2,4-oxadiazole]
0.461 µM	Cc1c(-c2cccnc2)ncnc1N1CCC(Oc2cccc(C#N)c2)CC1 [Example 244, 3-((1-(5-methyl-6-(pyridin-3-yl)pyrimidin-4-yl)piperidin-4-yl)oxy)benzonitrile]
0.808 µM	COc1ccc(OC2CCN(c3nnc(C(=O)NC4CCNC4=O)cc3C)CC2)cn1 (centres unmarked) [Example 180, 6-{4-[(6-methoxypyridin-3-yl)oxy]piperidin-1-yl}-5-methyl-N-(2-oxopyrrolidin-3-yl)pyridazine-3-carboxamide]
0.129 µM	COc1ccc(OC2CCN(c3nnc(C(=O)NCc4ccncc4)cc3C)CC2)cc1 [Example 101, 6-(4-(4-Methoxyphenoxy)piperidin-1-yl)-5-methyl-N-(pyridin-4-ylmethyl)pyridazine-3-carboxamide]
0.272 µM	Cc1ccc(OC2CCN(c3nnc(C(=O)NCc4ccncc4)cc3C)CC2)cc1Cl [Example 156, 6-[4-(3-chloro-4-methylphenoxy)piperidin-1-yl]-5-methyl-N-(pyridin-4-ylmethyl)pyridazine-3-carboxamide]
0.177 µM	COc1ccc(O[C@@H]2CCN(c3nnc(C(=O)N[C@H]4CCc5ncccc5C4)cc3C)C[C@@H]2F)cn1 [Example 138A, 6-((3S,4R)-3-fluoro-4-((6-methoxypyridin-3-yl)oxy)piperidin-1-yl)-5-methyl-N-((S)-5,6,7,8-tetrahydroquinolin-6-yl)pyridazine-3-carboxamide]
0.172 µM	Cc1ncc(C)c(N2CCC(Oc3cccc(C#N)c3)CC2)n1 [Example 76, 3-((1-(2,5-dimethylpyrimidin-4-yl)piperidin-4-yl)oxy)benzonitrile]
0.233 µM	COc1ccc(OC2CCN(c3nnc(C(=O)NCc4ccncn4)cc3C)CC2)cn1 [Example 150, 6-{4-[(6-methoxypyridin-3-yl)oxy]piperidin-1-yl}-5-methyl-N-(pyrimidin-4-ylmethyl)pyridazine-3-carboxamide]
0.085 µM	Cc1c(Cl)nc(CO)nc1N1CCC(Oc2ccc3c(c2)C(=O)CC3)CC1 [Example 26, 6-((1-(6-chloro-2-(hdyroxymethyl)-5-methylpyrimidin-4-yl)piperidin-4-yl)oxy)-2,3-dihydro-1H-inden-1-one]
